Laboratory results taken from a melting point compilation (Tetko et al.; mined from patent text by program, amines drawn as free bases though some values may be those of a salt).

Row | Compound | melting point
1 | C[C@H](NC(=O)c1cc(F)cc(NS(=O)(=O)CC2CN(C(c3ccc(Cl)cc3)c3ccc(Cl)cc3)C2)c1)C(N)=O | 219 to 221 °C
2 | N=C(N)Nc1nc2ccc([N+](=O)[O-])cc2[nH]1 | 305 to 307 °C
3 | OC1(c2ccc3c(c2)OCO3)C(c2ccc(Cl)cc2)SC2=NCCCCN21 (configuration not stated) | 105 to 107 °C
4 | Cn1c(C(F)(F)F)cc(=O)n(-c2c(F)cc(Cl)c3c2OCCC3)c1=O | 141 to 145 °C
5 | N#CC1c2ccccc2CCc2ccccc21 | 89 to 90 °C
6 | CC(C)Cn1c(CNC(=O)OC(C)(C)C)c(-c2ccc(Cl)cc2)c2cc(C(=O)O)ccc2c1=O | 226 to 227 °C
7 | Cc1ccc(C)n1-c1ccc(C(C)C#N)cc1 (configuration not stated) | 79 to 80 °C
8 | Cc1cc2c(cc1C)C1(CO2)C(=O)N(CC2CCOCC2)c2ccccc21 (configuration not stated) | 199 to 201 °C
9 | O=C(NN=Cc1ccccc1)c1ccc(O)cc1 | 226 °C
10 | CCOc1c2c(nc3c1cnn3CC)C(=O)c1ccccc1CC2 | 150 to 152 °C
11 | CCCCOn1nnc2ccc(C(O)c3ccccc3)cc21 (configuration not stated) | 89.2 °C
12 | CC(=O)CC(=O)Nc1cccc(OC(C)=O)c1 | 101 °C
13 | Cc1cccc(Cl)c1CNc1c(NC(C)(C)C)c(=O)c1=O | 254 to 257 °C
14 | CS(=O)(=O)c1ccc(-c2cnn(CC(F)(F)F)c(=O)c2Sc2ccc(F)cc2)cc1 | 182 to 185 °C
15 | N#Cc1ccc2c(c1)CCC=C2c1ccns1 | 77 to 81 °C
16 | O=C(c1nc(-c2ccccc2)nc2ccccc12)N1CCC(O)CC1 | 209 °C
17 | O=C(C1=C(N2CCCC2)CCC1)c1cccnc1Cl | 102 to 104 °C
18 | Nc1cccc(C(=O)OC2CCN(Cc3ccccc3)CC2)c1 | 70 to 71 °C
19 | O=C(O)c1cc([N+](=O)[O-])ccc1Nc1ccc(CCCCCc2ccc(Cl)c(Cl)c2)cc1 | 147 to 148 °C
20 | CCc1cn2c(N)c(Cl)cc(C(=O)NCC3CCN(CC4(O)CCOCC4)CC3)c2n1 | 229 °C
21 | O=C(Nc1cccc2c(CCO)c(Br)cnc12)c1c(Cl)cccc1Cl | 199 to 200 °C
22 | CC(C)(C)OC(=O)NC(=N)NC(=O)OCc1ccccc1 | 125 to 126 °C
23 | CC(=O)OCC(=O)C1(O)C(C)CC2C3CC(C)C4=CC(=O)CCC4(C)C3=CCC21C (configuration not stated) | 197 to 199 °C
24 | CCC(=O)NC1C=CCCCC1 (configuration not stated) | 84 °C
25 | O=C(O)Cc1cccc(Oc2ccccc2Cl)c1[N+](=O)[O-] | 162 to 164 °C
26 | COc1cc2c3cc(OC)c(OC)cc3n(C(=O)c3ccccc3)c2cc1OC | 181 to 182 °C

Row | Compound | melting point
27 | Cc1cc([N+](=O)[O-])cc(C)c1Oc1ccc([N+](=O)[O-])c(Nc2ccc(C#N)cc2)n1 | 250 to 252 °C
28 | Cc1nc(Cl)c2c(n1)c(C)nn2CC(F)(F)F | 70 °C
29 | CC(C)(C)C(=O)N1C(=O)C(C)(C)NC(C)(C)C1=O | 100 to 102 °C
30 | CCOC(=O)Cc1c(COC(C)=O)[nH]c(C(=O)OCc2ccccc2)c1C | 117 to 119 °C
31 | Cc1nc2c(N)nc3ccccc3c2n1CCCCNC(=O)C(C)C | 160 to 161 °C
32 | OC/C(=C/c1ccccc1)c1cccs1 | 64 to 65 °C
33 | Cc1c(C=NO)c2cc(F)ccc2n1-c1ccc(OCc2ccccc2)cc1 | 183 to 185 °C
34 | CC(=O)NNC1=Nc2sc(Cl)cc2C(c2ccccc2F)=NC1 | 207 to 209 °C
35 | COC(=O)C1=C(C(F)F)NC(C)=C(C(=O)OC(C)C)C1c1cccc([N+](=O)[O-])c1 (configuration not stated) | 140 to 141 °C
36 | Cc1c(C)c2c(c(C)c1O)C(=O)CC(C)(COc1ccc([N+](=O)[O-])cc1)O2 (configuration not stated) | 199 to 204 °C
37 | Cc1c(C2=NCCS2)[nH]c2c(NS(=O)(=O)c3cccs3)cccc12 | 163 to 164 °C
38 | CN(C)C1CCN(S(=O)(=O)c2cc(C#N)ccc2Sc2cc(Cl)ccc2Cl)CC1 | 140 to 143 °C
39 | O=c1[nH]c2ccc(S(=O)CCN3CCC(Cc4ccc(Cl)cc4)CC3)cc2o1 (configuration not stated) | 213 to 214 °C
40 | COc1c(C(=O)NC2CN3CCC2CC3)cc(Cl)c2c1CCCN2 (configuration not stated) | 105 to 108 °C
41 | CC(C)(O)c1nnc(-c2ccc3occ(-c4cc(F)ccc4F)c3c2)o1 | 155 to 156 °C
42 | COC(=O)c1ccc(S(C)(=O)=O)c(-c2ccon2)c1Cl | 145 to 147 °C
43 | COc1ccc2c(n1)CC(=O)N2CCCBr | 82 to 83 °C
44 | Cc1nc(N)nc(N)c1OCCCc1ccccc1 | 160 to 162 °C
45 | CCOC(=O)c1cccc(-c2cc3c(Cl)ncnc3[nH]2)c1 | > 250 °C
46 | Cc1ccc(-c2nc(N)ncc2-c2ccc(=O)n(C(C)C)n2)cc1 | 224 °C
47 | CC12CCC(C(=Cc3ccc([N+](=O)[O-])cc3)C1=O)C2(C)C (configuration not stated) | 158 °C
48 | CCCc1nc(-n2cccc2C(=O)C(F)(F)F)c(C#N)[nH]1 | 104 to 105 °C
49 | CCN(c1ccc(C)c2cc(-c3ncc(CO)s3)[nH]c12)S(=O)(=O)c1cccs1 | 166 to 167 °C
50 | COc1ccc(O)c(C(=O)c2oc3ccc(Cl)cc3c2N)c1 | 202 to 205 °C
51 | C=C(C)C(=O)Oc1ccc(S(=O)(=O)ON=C2CCCc3ccccc32)cc1 | 108 to 109 °C
52 | CCOC(Cc1ccc(OCCN2CCC(C)(C)c3cc(C(=NOC)c4ccccc4)ccc32)cc1)C(=O)O (configuration not stated) | 62 to 64 °C

Row | Compound | melting point
53 | CCCc1c(OCCCSc2ccc(C(=O)COC(C)=O)cn2)ccc(C(C)=O)c1O | 93 to 95 °C
54 | O=CNc1ccccc1F | 47 to 48 °C
55 | Cc1c(N2CCC3(CC3N)C2)c(F)cc2c(=O)c(C(=O)O)cn([C@@H]3C[C@@H]3F)c12 (some centres not stated) | 103 to 109 °C
56 | COc1nc(C)cnc1N(C(=O)OCC(C)C)S(=O)(=O)c1cccnc1-c1ccc(C=O)cc1 | 154 to 156 °C
57 | COC(=O)[C@H]1NC(=O)[C@H]1NC(=O)Cc1cccs1 (relative stereo) | 133 to 136 °C
58 | CCCCc1cc(Cc2ccc(C(=O)O)cc2)c2ccccc2n1 | 158 °C
59 | Cn1cncc1C(O)(c1ccc(Cn2cnnn2)cc1)c1ccc2c(c1)c(-c1cccc(Cl)c1)cc(=O)n2C (configuration not stated) | 160 °C
60 | COC(=O)c1cc(OC)c(OC)cc1OC | 91.5 to 92.5 °C
61 | CCOCCOc1ccc(C(C)C)c(NC(=O)CN2CCN(CCCSc3nc4ccccc4o3)CC2)c1C(C)C | 99 to 100 °C
62 | COC(=O)Cc1c(C(=O)OC)ccn1CCCl | 110 to 111 °C
63 | CN1C2=C(CSC2)C(=O)Nc2cc(Cl)c(Cl)cc21 | 281 to 283 °C
64 | CCCCCCCC(=O)Oc1c(OC)c(OC)c(OC(=O)CCCCCCC)c2cc(Cl)ccc12 | 74 to 75 °C
65 | COc1cc(CNC(=O)c2ccc3n2Cc2ccccc2N(C(=O)COc2ccc(Cl)cc2C)C3)ccc1O | 167 to 168 °C
66 | O=C(O)c1ccc(O)c(Oc2ccccc2)c1 | 181 to 183 °C
67 | CCOC(=O)c1csc(-c2cccs2)n1 | 72 to 73 °C
68 | CC(C)(C)c1ccc(Oc2cccc(C(=O)NCCN(O)C(N)=O)c2)cc1 | 100 to 102 °C
69 | N=C(N)c1ccc(S(=O)(=O)NCCc2ccc(OCC(=O)O)cc2)cc1 | 292 to 293 °C
70 | O=C(O)CN1CCOc2ccc([N+](=O)[O-])cc2C1=O | 110 to 120 °C
71 | CN1C(=O)C(Cc2c[nH]c3c(Cl)cc(S(C)(=O)=O)cc23)NC1=S (configuration not stated) | 242 to 245 °C
72 | Cc1nc(-n2ccc3c(O)cccc3c2=O)sc1C(=O)NCc1ccccc1 | 218 to 221 °C
73 | Cc1c(C)c(N2C(=O)c3ccccc3C2=O)c(C)c2c1OC(C)(C)C2c1ccc(F)cc1 (configuration not stated) | 209 to 211 °C
74 | CCCCCOC(=O)Oc1ccc(-c2ccc(C#N)cc2)cc1 | 50.1 to 51 °C
75 | CC(=O)C1C=C(Br)C(=O)CO1 (configuration not stated) | 78 to 80 °C
76 | O=C(Cc1ccc(F)cc1C(=O)O)Nc1cccc(/C=C/c2nc(C3CCC3)cs2)c1 | 211 to 212 °C
77 | COCc1nc2nccnc2c(=O)[nH]1 | 187 to 189 °C
78 | O=C(O)c1cc(C(=O)O)c(C(O)=NCc2ccc(C(F)(F)F)cc2)cc1C(O)=NCc1ccc(C(F)(F)F)cc1 | 263 to 264 °C

Row | Compound | melting point
79 | CN1CCC23c4c5ccc(O)c4OC2C(=O)CCC3(F)C1C5 (configuration not stated) | 215 to 217 °C
80 | COC(=O)c1ccc(NC(=O)Cc2ccc(OC)c(C34CC5CC(CC(C5)C3)C4)c2)cc1 | 146 to 147 °C
81 | O=C/C=C/c1ccc(Cl)c(Cl)c1 | 92 to 94 °C
82 | Cc1cccc(C)c1NC(=O)CCC1CCC(=O)N1 (configuration not stated) | 206 to 208 °C
83 | O=C(CCCN1CCC(c2ccccc2Cc2ccccc2)C1)c1ccc(F)cc1 (configuration not stated) | 126 to 128 °C
84 | CCCCNC(=O)NS(=O)(=O)Cc1c(C(=O)OC)cccc1S(=O)(=O)N(C)C | 118 to 134 °C
85 | CCC(=S)C1Cc2c(OC)ccc(OC)c2CO1 (configuration not stated) | 99.2 °C
86 | COc1ccc(CCNC(=O)C(F)(F)F)c2ccc(=O)[nH]c12 | 181 to 184 °C
87 | Cc1csc2ccc3[nH]c4c(c3c12)CN(C(=O)OCCCN(C)C)CC4 | 184 °C
88 | COc1ccc2c(=O)c(CSC)cn(C)c2c1 | 135 to 136 °C
89 | FC(F)(F)c1cccc(C=Cc2ccccc2)c1 | 127 to 129 °C
90 | CCn1nc(O)nc1SC | 83 to 87 °C
91 | COC(=O)Cc1cccc(NC(=O)NC2C(=O)Nc3ccccc3NC2=O)c1 | > 300 °C
92 | CC1=C(N2CC2)C(=O)c2c([nH]c(C)c2C)C1=O | 251 to 253 °C
93 | COc1ccc2c(c1)sc1ncc(C(O)CCc3ccccc3)n12 (configuration not stated) | 166 to 167 °C
94 | COC(=O)c1ccc(OC)c2c1CCO2 | 68 to 78 °C
95 | CNC(=O)ON=C1n2ccnc2S(=O)C1(C)C (configuration not stated) | 148 to 149 °C
96 | O=c1c2n[nH]c3ccc(Cl)cc3c-2nn1-c1ccccc1 | > 280 °C
97 | CC(C)(C)c1cc(S[C@@H]2CCCC[C@H]2O)cc(C(C)(C)C)c1O (relative stereo) | 91 °C
98 | O=C(O)c1cn(C2CC2)c2c(Br)c(F)c(F)cc2c1=O | 224 to 226 °C
99 | O=C(Nc1ccc(C(F)(F)F)cc1)Nc1cccc(S(=O)(=O)Nc2ccc(Cl)cc2)c1 | 196 to 198 °C
100 | O=C(NCCCCCCOC(=O)N1CCCCC1)OC1CCN(C(=O)Oc2ccc(Oc3ccccc3)cc2)CC1 | 92 to 93 °C
101 | O=C(O)c1c[nH]c2cc(C(F)(F)F)nn2c1=O | > 340 °C
102 | CC(C1CCC(Oc2ccc(F)cc2)C1)N(O)C(N)=O (configuration not stated) | 111 to 112 °C
